From ChEMBL document CHEMBL6182944, “Substrate Specificity of the Organic Cation Transporters MATE1 and MATE2K and Functional Overlap with OCT1 and OCT2” (J Med Chem, 2025)

Columns and labels:
[1] = target: T1, Multidrug and toxin extrusion protein 2 (Homo sapiens, UniProt Q86VL8); test: Substrate activity at MATE2-K (unknown origin) expressed in HEK293 cells assessed as intrinsic clearance by measuring ratio of Vmax (maximum transport velocity) over Km measured per mg of protein by HPLC-MS/MS analysis; type: cell-based
T1 sequence (Q86VL8 whole entry): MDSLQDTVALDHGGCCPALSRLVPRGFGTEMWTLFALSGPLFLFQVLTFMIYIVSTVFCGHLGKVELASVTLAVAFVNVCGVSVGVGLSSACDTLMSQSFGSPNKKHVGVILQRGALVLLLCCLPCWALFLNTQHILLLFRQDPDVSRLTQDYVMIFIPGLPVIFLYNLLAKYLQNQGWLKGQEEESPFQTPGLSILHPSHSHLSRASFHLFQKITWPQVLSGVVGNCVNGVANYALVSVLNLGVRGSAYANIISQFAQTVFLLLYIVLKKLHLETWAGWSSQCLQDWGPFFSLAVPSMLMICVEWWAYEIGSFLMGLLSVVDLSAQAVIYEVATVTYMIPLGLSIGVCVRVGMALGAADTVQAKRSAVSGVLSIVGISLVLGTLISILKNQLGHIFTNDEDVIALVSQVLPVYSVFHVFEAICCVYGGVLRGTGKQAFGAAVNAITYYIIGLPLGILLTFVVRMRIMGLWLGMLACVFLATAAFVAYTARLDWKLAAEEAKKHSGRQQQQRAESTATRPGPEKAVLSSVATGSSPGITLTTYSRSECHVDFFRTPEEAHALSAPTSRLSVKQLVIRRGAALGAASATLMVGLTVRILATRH

[2] = target: T2, Multidrug and toxin extrusion protein 1 (Homo sapiens, UniProt Q96FL8); test: Substrate activity at MATE1 (unknown origin) expressed in HEK293 cells assessed as Vmax (maximum transport velocity) by HPLC-MS/MS analysis; type: cell-based
T2 sequence (Q96FL8 whole entry): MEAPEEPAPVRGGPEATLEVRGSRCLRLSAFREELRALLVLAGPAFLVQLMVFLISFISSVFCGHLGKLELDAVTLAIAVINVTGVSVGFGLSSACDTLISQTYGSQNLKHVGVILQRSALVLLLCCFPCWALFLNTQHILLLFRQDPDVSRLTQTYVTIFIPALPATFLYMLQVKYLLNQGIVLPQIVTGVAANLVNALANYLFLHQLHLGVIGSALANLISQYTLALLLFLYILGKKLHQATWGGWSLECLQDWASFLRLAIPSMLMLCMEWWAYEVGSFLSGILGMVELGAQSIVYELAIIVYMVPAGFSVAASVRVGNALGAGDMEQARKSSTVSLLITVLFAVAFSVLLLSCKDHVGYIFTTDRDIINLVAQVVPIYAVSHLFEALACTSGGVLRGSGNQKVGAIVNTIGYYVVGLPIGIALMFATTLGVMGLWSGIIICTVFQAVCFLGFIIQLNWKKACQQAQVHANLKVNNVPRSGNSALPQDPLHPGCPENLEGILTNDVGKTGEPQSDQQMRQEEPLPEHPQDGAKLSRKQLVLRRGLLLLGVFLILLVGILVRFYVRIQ

MATE2-K [3] = target: T3, MATE2-K (Homo sapiens, UniProt Q86VL8); test: (§1) Substrate activity at MATE2-K (unknown origin) expressed in HEK293 cells assessed as substrate concentration to achieve half of Vmax (maximum transport velocity) measured per mg of protein by HPLC-MS/MS analysis; type: cell-based; conditions: HEK293 cells expressing MATE2-K
T3 sequence (Q86VL8 whole entry): T1 sequence (Q86VL8 whole entry)

[4] = target: T2, Multidrug and toxin extrusion protein 1; test: Substrate activity at MATE1 (unknown origin) expressed in HEK293 cells assessed as intrinsic clearance by measuring ratio of Vmax (maximum transport velocity) over Km measured per mg of protein by HPLC-MS/MS analysis; type: cell-based
[5] = target: T1, Multidrug and toxin extrusion protein 2; test: Substrate activity at MATE2-K (unknown origin) expressed in HEK293 cells assessed as Vmax (maximum transport velocity) by HPLC-MS/MS analysis; type: cell-based
[6] = target: T1, Multidrug and toxin extrusion protein 2; test: Substrate activity at MATE2-K (unknown origin) expressed in HEK293 cells assessed as increase in uptake by HPLC-MS/MS analysis; type: cell-based
[7] = target: T2, Multidrug and toxin extrusion protein 1; test: Substrate activity at MATE1 (unknown origin) expressed in HEK293 cells assessed as increase in uptake by HPLC-MS/MS analysis; type: cell-based
MATE2-K [8] = target: T3, MATE2-K; test: in vitro
MATE1 = target: T4, MATE1 (Homo sapiens, UniProt Q96FL8); test: in vitro
T4 sequence (Q96FL8 whole entry): T2 sequence (Q96FL8 whole entry)

[9] = substrate: CC(CCc1ccc(O)cc1)NCCc1ccc(O)c(O)c1; test: as §1; type: cell-based, Homo sapiens
[10] = substrate: c1c2c(cc3c1OCO3)-c1cc3ccc4c(c3c[n+]1CC2)OCO4; test: as §1; type: cell-based, Homo sapiens
[11] = substrate: C[C@H]1N=C(N(C)C)N=C(N)N1; test: as §1; type: cell-based, Homo sapiens
[12] = substrate: COCCn1c2c([n+](Cc3cnccn3)c1C)C(=O)c1ccccc1C2=O; test: as §1; type: cell-based, Homo sapiens
[13] = substrate: CN(C)C(=O)Oc1cccc([N+](C)(C)C)c1; test: as §1; type: cell-based, Homo sapiens
[14] = substrate: CCN1CCCC1CNC(=O)c1cc(S(=O)(=O)CC)c(N)cc1OC; test: as §1; type: cell-based, Homo sapiens
[15] = substrate: C[N+]1(CC2CC2)CC[C@]23c4c5ccc(O)c4O[C@H]2C(=O)CC[C@@]3(O)[C@H]1C5; test: as §1; type: cell-based, Homo sapiens
not read [16] = substrate: CC(C)NC[C@@H](O)COc1ccc(CC(N)=O)cc1; test: not read
not read [17] = substrate: Cc1ncc(CO)c(CO)c1O; test: not read
not read [18] = substrate: Nc1nc(=O)n([C@@H]2CS[C@H](CO)O2)cc1F; test: not read
not read [19] = substrate: NCCc1ccc(O)c(O)c1; test: not read
not read [20] = substrate: CNC[C@H](O)c1ccc(O)c(O)c1; test: not read
not read [21] = substrate: CN(C)CCc1c[nH]c2ccc(C[C@H]3COC(=O)N3)cc12; test: not read
not read [22] = substrate: Cc1ncc(C[n+]2csc(CCO)c2C)c(N)n1; test: not read
[23] = HEK293 cells expressing MATE2-K

In the case of CN(C)CCc1c[nH]c2ccc(C[C@@H]3COC(=O)N3)cc12, the CL [1] is reported as 54.2 µL/min, the Vmax [2] is reported as 2624 pmol/min and the Km (MATE2-K [3]) is reported as 18.3 µM. The CL [4] was 94.5 µL/min and the Vmax [5] was 992 pmol/min.

O=C(O)c1cn(C2CC2)c2cc(N3CCNCC3)c(F)cc2c1=O [CIPROFLOXACIN] was tested, and the Activity [6] was “Dose-dependent-effect” and the Activity [7] was “Dose-dependent-effect”.

For c1c2c(cc3c1OCO3)-c1cc3ccc4c(c3c[n+]1CC2)OCO4 [COPTISINE], the uptake ratio at 1 min, 2.5 µM (MATE2-K [8]; [23]) was greater than 2, the Activity [6] was “Dose-dependent-effect” and the Activity [7] was “Dose-dependent-effect”. It also gave a Vmax [2] of 2901 pmol/min and an uptake ratio at 1 min, 2.5 µM (MATE1; HEK293 cells expressing MATE1) greater than 2.

With CN[C@@H]1CCc2[nH]c3ccc(C(N)=O)cc3c2C1 [FROVATRIPTAN] the CL [1] was 77.8 µL/min, the uptake ratio at 1 min, 2.5 µM (MATE2-K [8]; hek293) was greater than 2 and the Activity [6] was “Dose-dependent-effect”. The Activity [7] was “Dose-dependent-effect”, the Vmax [2] was 4568 pmol/min and the uptake ratio at 1 min, 2.5 µM (MATE1; hek293) was greater than 2. It also gave a CL [4] of 64.9 µL/min and a Vmax [5] of 869 pmol/min.

Nc1ccn([C@@H]2CS[C@H](CO)O2)c(=O)n1 [LAMIVUDINE] was tested, and the Activity [6] was “Dose-dependent-effect” and the Activity [7] was “Dose-dependent-effect”.

CC(=O)OC(C)C[N+](C)(C)C (configuration not stated) [METHACHOLINE] was tested, and the CL [1] was 0.88 µL/min, the uptake ratio at 1 min, 2.5 µM (MATE2-K [8]; hek293) was greater than 2 and the Vmax [2] was 17843 pmol/min. It also gave an uptake ratio at 1 min, 2.5 µM (MATE1; hek293) greater than 2, a CL [4] of 8.98 µL/min and a Vmax [5] of 1240 pmol/min.

For CN(C)C(=O)Oc1cccc([N+](C)(C)C)c1 [NEOSTIGMINE], the CL [1] was 8.14 µL/min, the uptake ratio at 1 min, 2.5 µM (MATE2-K [8]; [23]) was greater than 2 and the Activity [6] was “Dose-dependent-effect”. For the same molecule, the Activity [7] was “Dose-dependent-effect”, the Vmax [2] was 7255 pmol/min and the uptake ratio at 1 min, 2.5 µM (MATE1; HEK293 cells expressing MATE1) was greater than 2. It also gave a CL [4] of 45.2 µL/min.

Work on NC[C@H](O)c1ccc(O)c(O)c1 [NOREPINEPHRINE] yielded a CL [1] of 0.59 µL/min, a Vmax [2] of 18720 pmol/min and a CL [4] of 10 µL/min. It also gave a Vmax [5] of 673 pmol/min.

In the case of N=C(N)c1ccc(OCCCCCOc2ccc(C(=N)N)cc2)cc1 [PENTAMIDINE], the Activity [6] is reported as “Dose-dependent-effect” and the Activity [7] is reported as “Dose-dependent-effect”.

In the case of [H]/N=C(/N)N/C(=N/[H])NCCc1ccccc1 [PHENFORMIN], the CL [1] is reported as 18.6 µL/min, the uptake ratio at 1 min, 2.5 µM (MATE2-K [8]; hek293) is reported as greater than 2 and the Vmax [2] is reported as 8451 pmol/min. For the same molecule, the uptake ratio at 1 min, 2.5 µM (MATE1; hek293) was greater than 2, the CL [4] was 83.9 µL/min and the Vmax [5] was 1361 pmol/min.

In the case of CNC[C@H](O)c1cccc(O)c1 [PHENYLEPHRINE], the CL [1] is reported as 1.79 µL/min, the uptake ratio at 1 min, 2.5 µM (MATE2-K [8]; hek293) is reported as greater than 2 and the Vmax [2] is reported as 11611 pmol/min. It also gave an uptake ratio at 1 min, 2.5 µM (MATE1; hek293) greater than 2, a CL [4] of 24.5 µL/min and a Vmax [5] of 776 pmol/min.

Molecule Cc1ncc(CO)c(CN)c1O [PYRIDOXAMINE] has a CL [1] of 0.64 µL/min, an uptake ratio at 1 min, 2.5 µM (MATE2-K [8]; hek293) of less than 2 and a Vmax [2] of 5442 pmol/min. For the same molecule, the uptake ratio at 1 min, 2.5 µM (MATE1; hek293) was greater than 2, the CL [4] was 3.23 µL/min and the Vmax [5] was 989.5 pmol/min.

With Cc1cc2nc3c(=O)[nH]c(=O)nc-3n(C[C@H](O)[C@H](O)[C@H](O)CO)c2cc1C [RIBOFLAVIN] the Activity [6] was “Dose-dependent-effect” and the Activity [7] was “Dose-dependent-effect”.

In the case of COCCn1c2c([n+](Cc3cnccn3)c1C)C(=O)c1ccccc1C2=O [SEPANTRONIUM], the CL [1] is reported as 9.19 µL/min, the uptake ratio at 1 min, 2.5 µM (MATE2-K [8]; [23]) is reported as greater than 2 and the Activity [6] is reported as “Dose-dependent-effect”. For the same molecule, the Activity [7] was “Dose-dependent-effect”, the Vmax [2] was 304 pmol/min and the uptake ratio at 1 min, 2.5 µM (MATE1; HEK293 cells expressing MATE1) was greater than 2. For the same molecule, the CL [4] was 3.76 µL/min.

Molecule CCN1CCCC1CNC(=O)c1cc(S(N)(=O)=O)ccc1OC (configuration not stated) [SULPIRIDE] has a CL [1] of 44.9 µL/min, a Vmax [2] of 851 pmol/min and a CL [4] of 53.2 µL/min. It also gave a Vmax [5] of 1025 pmol/min.

For Cc1ncc(C[n+]2csc(CCO)c2C)c(N)n1 [THIAMINE ION], the CL [1] was 6.32 µL/min, the uptake ratio at 1 min, 2.5 µM (MATE2-K [8]; hek293) was greater than 2 and the Activity [6] was “Dose-dependent-effect”. The Activity [7] was “Dose-dependent-effect”, the Vmax [2] was 599 pmol/min and the uptake ratio at 1 min, 2.5 µM (MATE1; hek293) was greater than 2. It also gave a CL [4] of 34.9 µL/min.

For NCCc1ccc(O)cc1 [TYRAMINE], the CL [1] was 2.71 µL/min, the uptake ratio at 1 min, 2.5 µM (MATE2-K [8]; hek293) was less than 2 and the Vmax [2] was 5948 pmol/min. For the same molecule, the uptake ratio at 1 min, 2.5 µM (MATE1; hek293) was greater than 2, the CL [4] was 43.6 µL/min and the Vmax [5] was 2868 pmol/min.

B1: Multidrug and toxin extrusion protein 2 (Homo sapiens) (protein)
chain: T1 sequence (Q86VL8 whole entry)
B1 was tested, and the Km [9] was 86.4 µM, the Vmax [9] was 0.000493 µmol/min and the Km [10] was 1.88 µM. For the same molecule, the Vmax [10] was 0.000246 µmol/min, the Km [11] was 81.6 µM and the Vmax [11] was 0.00281 µmol/min. The Km [12] was 8.54 µM, the Vmax [12] was 7.85e-05 µmol/min and the Km [13] was 385 µM. The Vmax [13] was 0.00314 µmol/min, the Km [14] was 39.9 µM and the Vmax [14] was 0.00071 µmol/min. The Km [15] was 86.8 µM, the Vmax [15] was 4.16e-05 µmol/min and the Km (not read [16]) was 181 µM. It also gave a Vmax (not read [16]) of 0.00296 µmol/min, a Km (not read [17]) of 495 µM and a Vmax (not read [17]) of 0.000593 µmol/min. It also gave a Km (not read [18]) of 873 µM, a Vmax (not read [18]) of 0.00263 µmol/min and a Km (not read [19]) of 961 µM. The Vmax (not read [19]) was 0.00122 µmol/min, the Km (not read [20]) was 1510 µM and the Vmax (not read [20]) was 0.00297 µmol/min. For the same molecule, the Km (not read [21]) was 94.5 µM, the Vmax (not read [21]) was 0.00166 µmol/min and the Vmax (not read [22]) was 0.000109 µmol/min.
